In patent US9133158B2, “Bicyclic dihydroisoquinoline-1-one derivatives” (Hoffmann-La Roche Inc., priority 2011, dated 2015):

Experiments:
human CYP11B2 = target: T1, human CYP11B2 (Homo sapiens, UniProt P19099); assay: G-402 cellular enzyme assay, human CYP11B2 (aldosterone release, HTRF); assay type: cell-based; conditions: G-402 cells, 1 μM Deoxycorticosterone
T1 construct: expressed in transfected cells
T1 sequence (P19099 25-503): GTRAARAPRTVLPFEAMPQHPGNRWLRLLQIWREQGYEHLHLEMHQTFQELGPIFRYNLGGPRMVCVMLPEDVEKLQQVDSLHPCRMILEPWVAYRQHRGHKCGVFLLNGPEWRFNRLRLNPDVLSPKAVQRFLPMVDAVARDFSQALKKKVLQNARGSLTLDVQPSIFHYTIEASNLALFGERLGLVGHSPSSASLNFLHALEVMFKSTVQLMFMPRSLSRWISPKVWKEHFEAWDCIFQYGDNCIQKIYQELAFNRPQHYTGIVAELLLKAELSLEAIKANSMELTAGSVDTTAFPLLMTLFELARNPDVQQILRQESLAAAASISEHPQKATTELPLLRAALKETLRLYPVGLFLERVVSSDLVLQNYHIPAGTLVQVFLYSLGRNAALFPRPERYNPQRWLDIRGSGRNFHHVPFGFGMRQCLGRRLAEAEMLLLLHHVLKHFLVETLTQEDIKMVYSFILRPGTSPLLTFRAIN
Outline: (§1)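 G-402 cells stably expressing human CYP11B1 or CYP11B2, in DMEM/F12 with 2.5% charcoal-treated FCS, were incubated 16 h with test compound and substrate (1 μM 11-deoxycortisol for CYP11B1; 1 μM deoxycorticosterone for CYP11B2). Cortisol or aldosterone in supernatant was quantified by HTRF; EC50 from 4-parameter MMF fit.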

human CYP11B1 = target: T2, human CYP11B1 (Homo sapiens, UniProt P15538); assay: G-402 cellular enzyme assay, human CYP11B1 (cortisol release, HTRF); assay type: cell-based; conditions: G-402 cells, 1 μM Deoxycortisol
T2 construct: expressed in transfected cells
T2 sequence (P15538 25-503): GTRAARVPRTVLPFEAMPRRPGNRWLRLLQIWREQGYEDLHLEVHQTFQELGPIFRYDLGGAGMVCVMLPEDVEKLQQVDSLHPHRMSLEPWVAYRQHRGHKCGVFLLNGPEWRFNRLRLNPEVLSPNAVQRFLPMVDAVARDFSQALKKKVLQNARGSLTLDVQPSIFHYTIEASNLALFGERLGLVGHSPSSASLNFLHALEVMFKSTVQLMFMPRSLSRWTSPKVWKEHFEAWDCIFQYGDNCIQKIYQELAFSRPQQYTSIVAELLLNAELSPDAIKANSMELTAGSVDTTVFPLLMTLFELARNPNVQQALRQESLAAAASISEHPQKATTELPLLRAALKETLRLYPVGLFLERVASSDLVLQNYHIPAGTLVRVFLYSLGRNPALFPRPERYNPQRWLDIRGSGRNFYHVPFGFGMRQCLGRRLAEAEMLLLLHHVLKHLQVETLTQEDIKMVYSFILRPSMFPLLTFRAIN
Outline: as §1

Row | EC50 (human CYP11B2) [nM] | EC50 (human CYP11B1) [nM] | Structure (SMILES)
1 | 40.3 | 12400 | CC[C@@H]1c2cc(Cl)ccc2C(=O)N1c1cncc2c1CC[C@H]2NS(C)(=O)=O (single isomer, unassigned) [Example 369, N-[(R or S)-4-((R or S)-5-Chloro-3-ethyl-1-oxo-1,3-dihydro-isoindol-2-yl)-6,7-dihydro-5H-[2]pyrindin-7-yl]-methanesulfonamide]
2 | 100 | 22800 | CC(=O)N[C@@H]1CCCc2c1cncc2N1C(=O)c2ccc(Cl)cc2[C@H]1C1CC1 (single isomer, unassigned) [Example 372, N-[(R or S)-4-((R or S)-5-Chloro-3-cyclopropyl-1-oxo-1,3-dihydro-isoindol-2-yl)-5,6,7,8-tetrahydro-isoquinolin-8-yl]-acetamide]
3 | 26 | 7960 | CCC(=O)N[C@@H]1CCc2c1cncc2N1C(=O)c2ccc(Cl)cc2[C@H]1C (single isomer, unassigned) [Example 376, N-[(R or S)-4-((R or S)-5-Chloro-3-methyl-1-oxo-1,3-dihydro-isoindol-2-yl)-6,7-dihydro-5H-[2]pyrindin-7-yl]-propionamide]
4 | 3.4 | 448 | CCC(=O)N[C@H]1CCc2c1cncc2N1C(=O)c2ccc(Cl)cc2[C@H]1C (single isomer, unassigned) [Example 377, N-[(S or R)-4-((R or S)-5-Chloro-3-methyl-1-oxo-1,3-dihydro-isoindol-2-yl)-6,7-dihydro-5H-[2]pyrindin-7-yl]-propionamide]
5 | 212 | 14600 | CCC(=O)N[C@H]1CCc2c1cncc2N1C(=O)c2ccc(Cl)cc2[C@@H]1C (single isomer, unassigned) [Example 378, N-[(S or R)-4-((S or R)-5-Chloro-3-methyl-1-oxo-1,3-dihydro-isoindol-2-yl)-6,7-dihydro-5H-[2]pyrindin-7-yl]-propionamide]
6 | 316 | 5470 | CCC1c2cc(Cl)ccc2C(=O)N1c1cncc(CNS(=O)(=O)CC)c1 (single isomer, unassigned) [Example 390, Ethanesulfonic acid [5-((S or R)-5-chloro-3-ethyl-1-oxo-1,3-dihydro-isoindol-2-yl)-pyridin-3-ylmethyl]-amide]
7 | 313 | 11300 | CCC(=O)NCc1cncc(N2C(=O)c3ccc(Cl)cc3C2CC)c1 (single isomer, unassigned) [Example 399, N-[5-((S or R)-5-Chloro-3-ethyl-1-oxo-1,3-dihydro-isoindol-2-yl)-pyridin-3-ylmethyl]-propionamide]
8 | 546 | 35200 | CCC1c2ccc(Cl)cc2C(=O)N1c1cncc(CNS(C)(=O)=O)c1 (single isomer, unassigned) [Example 405, N-[5-((S or R)-5-Chloro-1-ethyl-3-oxo-1,3-dihydro-isoindol-2-yl)-pyridin-3-ylmethyl]-methane-sulfonamide]
9 | 987 | 20700 | CCC1c2ccc(Cl)cc2C(=O)N1c1cncc(CNS(C)(=O)=O)c1 (single isomer, unassigned) [Example 407, N-[5-((R or S)-5-Chloro-1-ethyl-3-oxo-1,3-dihydro-isoindol-2-yl)-pyridin-3-ylmethyl]-methane-sulfonamide]
10 | 20 | 105 | CCC1c2cc(Cl)ccc2C(=O)N1c1cncc(-c2ccnn2C)c1 (single isomer, unassigned) [Example 428, (R or S)-5-Chloro-3-ethyl-2-[5-(2-methyl-2H-pyrazol-3-yl)-pyridin-3-yl]-2,3-dihydro-isoindol-1-one]
11 | 4.3 | 57.7 | CCC1c2cc(Cl)ccc2C(=O)N1c1cncc(-c2ccnn2C)c1 (single isomer, unassigned) [Example 429, (S or R)-5-Chloro-3-ethyl-2-[5-(2-methyl-2H-pyrazol-3-yl)-pyridin-3-yl]-2,3-dihydro-isoindol-1-one]
12 | 467 | 21300 | CC(=O)NC1CCCc2c1cncc2N1C(=O)c2ccc(Cl)cc2C1(C)C (single isomer, unassigned) [Example 466, N—[(S or R)-4-(6-Chloro-1,1-dimethyl-3-oxo-1,3-dihydro-isoindol-2-yl)-5,6,7,8-tetrahydro-isoquinolin-8-yl]-acetamide]
13 | 28.8 | 2180 | CC(=O)NC1CCCc2c1cncc2N1C(=O)c2ccc(Cl)cc2C1(C)C (single isomer, unassigned) [Example 467, N—[(R or S)-4-(6-Chloro-1,1-dimethyl-3-oxo-1,3-dihydro-isoindol-2-yl)-5,6,7,8-tetrahydro-isoquinolin-8-yl]-acetamide]
14 | 40.2 | 1830 | CCS(=O)(=O)NC1CCCc2c1cncc2N1Cc2cc(Cl)ccc2C1=O (single isomer, unassigned; (+)) [Example 316, (+)-Ethanesulfonic acid [(R or S)-4-(5-chloro-1-oxo-1,3-dihydro-isoindol-2-yl)-5,6,7,8-tetrahydro-isoquinolin-8-yl]-amide]
15 | 109 | 5130 | CC(=O)NC1CCc2c1cncc2N1Cc2cc(Cl)ccc2C1=O (single isomer, unassigned; (+)) [Example 319, (+)-N—[(R or S)-4-(5-Chloro-1-oxo-1,3-dihydro-isoindol-2-yl)-6,7-dihydro-5H-[2]pyrindin-7-yl]-acetamide]
16 | 109 | 2640 | CCS(=O)(=O)NC1CCCc2c1cncc2N1Cc2cc(Cl)ccc2C1=O (single isomer, unassigned; (-)) [Example 317, (−)-Ethanesulfonic acid [(S or R)-4-(5-chloro-1-oxo-1,3-dihydro-isoindol-2-yl)-5,6,7,8-tetrahydro-isoquinolin-8-yl]-amide]
17 | 86 | 4610 | O=C1c2ccc(Cl)cc2CCN1c1cccnc1 [Example 1, 6-Chloro-2-pyridin-3-yl-3,4-dihydro-2H-isoquinolin-1-one]
18 | 442 | 7390 | N#Cc1cncc(N2CCc3cc(Cl)ccc3C2=O)c1 [Example 2, 5-(6-Chloro-1-oxo-3,4-dihydro-1H-isoquinolin-2-yl)-nicotinonitrile]
19 | 96.5 | 3720 | O=C1c2ccc(Cl)cc2CCN1c1cncc(CO)c1 [Example 3, 6-Chloro-2-(5-hydroxymethyl-pyridin-3-yl)-3,4-dihydro-2H-isoquinolin-1-one]
20 | 67.1 | 1240 | O=C1c2ccc(Cl)cc2CCN1c1cncc(Cl)c1 [Example 4, 6-Chloro-2-(5-chloro-pyridin-3-yl)-3,4-dihydro-2H-isoquinolin-1-one]
21 | 92.5 | 4270 | O=C1c2ccc(Cl)cc2CCN1c1cncc(F)c1 [Example 5, 6-Chloro-2-(5-fluoro-pyridin-3-yl)-3,4-dihydro-2H-isoquinolin-1-one]
22 | 30 | 1210 | O=C1c2ccc(Cl)cc2CCN1c1cnccc1Cl [Example 6, 6-Chloro-2-(4-chloro-pyridin-3-yl)-3,4-dihydro-2H-isoquinolin-1-one]
23 | 77.9 | 704 | O=C1c2ccc(Cl)cc2CCN1c1cncc(Br)c1 [Example 7, 2-(5-Bromo-pyridin-3-yl)-6-chloro-3,4-dihydro-2H-isoquinolin-1-one]
24 | 44.9 | 807 | Cc1cncc(N2CCc3cc(Cl)ccc3C2=O)c1 [Example 8, 6-Chloro-2-(5-methyl-pyridin-3-yl)-3,4-dihydro-2H-isoquinolin-1-one]
25 | 117 | 4740 | O=Cc1cncc(N2CCc3cc(Cl)ccc3C2=O)c1 [Example 9, 5-(6-Chloro-1-oxo-3,4-dihydro-1H-isoquinolin-2-yl)-pyridine-3-carbaldehyde]
26 | 26 | 822 | COc1cncc(N2CCc3cc(Cl)ccc3C2=O)c1 [Example 10, 6-Chloro-2-(5-methoxy-pyridin-3-yl)-3,4-dihydro-2H-isoquinolin-1-one]
27 | 12.7 | 257 | CC(C)Oc1cncc(N2CCc3cc(Cl)ccc3C2=O)c1 [Example 11, 6-Chloro-2-(5-isopropoxy-pyridin-3-yl)-3,4-dihydro-2H-isoquinolin-1-one]
28 | 35.7 | 118 | CC(C)(O)c1cncc(N2CCc3cc(Cl)ccc3C2=O)c1 [Example 12, 6-Chloro-2-[5-(1-hydroxy-1-methyl-ethyl)-pyridin-3-yl]-3,4-dihydro-2H-isoquinolin-1-one]
